The target in the test is T1, human Cav2.2 (Homo sapiens, UniProt Q00975).
T1 construct: IMR32 cells endogenously expressing human Cav2.2; endogenous in cells; host or cells: IMR32 cells (human neuroblastoma)
Put plainly: Assessment of calcium channel activity using FLIPR (Ca2+ influx in IMR32 cells). The note with it: IMR32 cells endogenously expressing human Cav2.2, Calcium 4 dye, 60 minute pre-incubation, 2 μM nifedipine, depolarized with 80 mM KCl, 5 mM CaCl2. Type of test: cell-based. Here is the method:
(i) In Vitro Methods—Assessment of Calcium Channel Activity Using FLIPR:
IMR32 cells endogenously expressing human Cav2.2 were assayed for Ca^2+ influx using a no-wash calcium indicator dye (Calcium 4 dye: Molecular Probes) and FLIPR technology (Lubin, M. L.; Reitz, T. L.; Todd, M. J.; Flores, C. M.; Qin, N.; Xin, H. Assay and Drug Development Technologies 2006, 4(6), 689-694.). The IMR32 cells were maintained in MEM media containing 10% (v/v) FBS, 1% (v/v) antibiotic/antimitotic, 1% (v/v) sodium pyruvate and 1% (v/v) MEM NEAA. Following dissociation in 0.05% (v/v) trypsin/EDTA, cells were seeded into black 1×96-well plates (Corning Cellbind) at a density of 1−1.2×10^5 cells/well and incubated in the maintenance media above for 48 hours at 37° C. Immediately prior to performing the assay the media was removed and cells were loaded for 1.5 hours with 1×Calcium 4 dye prepared in HBSS (137 mM NaCl, 5.4 mM KCl, 0.25 mM Na2HPO4, 0.44 mM KH2PO4, 1.3 mM CaCl2, 1 mM MgSO4, 4.2 mM NaHCO3) containing HEPES pH 7.4 at room temperature. After dye loading and a subsequent 60 minute pre-incubation with compounds (full log dilutions from 10 μM to 0.1 nM) in the presence of 1.3 mM CaCl2 and 2 μM nifedipine to block endogenous L-type channels, the external Ca^2+ concentration was increased to 5 mM CaCl2 and the cells concomitantly depolarized with 80 mM KCl to assay channel activity. To determine the IC50 values, the percent inhibition of the compound at each concentration was determined relative to the activity in the absence of inhibitor, and data was fitted using non-linear regression sigmoidal dose response curve analysis with GraphPad Prism®.

T1 sequence (Q00975 whole entry): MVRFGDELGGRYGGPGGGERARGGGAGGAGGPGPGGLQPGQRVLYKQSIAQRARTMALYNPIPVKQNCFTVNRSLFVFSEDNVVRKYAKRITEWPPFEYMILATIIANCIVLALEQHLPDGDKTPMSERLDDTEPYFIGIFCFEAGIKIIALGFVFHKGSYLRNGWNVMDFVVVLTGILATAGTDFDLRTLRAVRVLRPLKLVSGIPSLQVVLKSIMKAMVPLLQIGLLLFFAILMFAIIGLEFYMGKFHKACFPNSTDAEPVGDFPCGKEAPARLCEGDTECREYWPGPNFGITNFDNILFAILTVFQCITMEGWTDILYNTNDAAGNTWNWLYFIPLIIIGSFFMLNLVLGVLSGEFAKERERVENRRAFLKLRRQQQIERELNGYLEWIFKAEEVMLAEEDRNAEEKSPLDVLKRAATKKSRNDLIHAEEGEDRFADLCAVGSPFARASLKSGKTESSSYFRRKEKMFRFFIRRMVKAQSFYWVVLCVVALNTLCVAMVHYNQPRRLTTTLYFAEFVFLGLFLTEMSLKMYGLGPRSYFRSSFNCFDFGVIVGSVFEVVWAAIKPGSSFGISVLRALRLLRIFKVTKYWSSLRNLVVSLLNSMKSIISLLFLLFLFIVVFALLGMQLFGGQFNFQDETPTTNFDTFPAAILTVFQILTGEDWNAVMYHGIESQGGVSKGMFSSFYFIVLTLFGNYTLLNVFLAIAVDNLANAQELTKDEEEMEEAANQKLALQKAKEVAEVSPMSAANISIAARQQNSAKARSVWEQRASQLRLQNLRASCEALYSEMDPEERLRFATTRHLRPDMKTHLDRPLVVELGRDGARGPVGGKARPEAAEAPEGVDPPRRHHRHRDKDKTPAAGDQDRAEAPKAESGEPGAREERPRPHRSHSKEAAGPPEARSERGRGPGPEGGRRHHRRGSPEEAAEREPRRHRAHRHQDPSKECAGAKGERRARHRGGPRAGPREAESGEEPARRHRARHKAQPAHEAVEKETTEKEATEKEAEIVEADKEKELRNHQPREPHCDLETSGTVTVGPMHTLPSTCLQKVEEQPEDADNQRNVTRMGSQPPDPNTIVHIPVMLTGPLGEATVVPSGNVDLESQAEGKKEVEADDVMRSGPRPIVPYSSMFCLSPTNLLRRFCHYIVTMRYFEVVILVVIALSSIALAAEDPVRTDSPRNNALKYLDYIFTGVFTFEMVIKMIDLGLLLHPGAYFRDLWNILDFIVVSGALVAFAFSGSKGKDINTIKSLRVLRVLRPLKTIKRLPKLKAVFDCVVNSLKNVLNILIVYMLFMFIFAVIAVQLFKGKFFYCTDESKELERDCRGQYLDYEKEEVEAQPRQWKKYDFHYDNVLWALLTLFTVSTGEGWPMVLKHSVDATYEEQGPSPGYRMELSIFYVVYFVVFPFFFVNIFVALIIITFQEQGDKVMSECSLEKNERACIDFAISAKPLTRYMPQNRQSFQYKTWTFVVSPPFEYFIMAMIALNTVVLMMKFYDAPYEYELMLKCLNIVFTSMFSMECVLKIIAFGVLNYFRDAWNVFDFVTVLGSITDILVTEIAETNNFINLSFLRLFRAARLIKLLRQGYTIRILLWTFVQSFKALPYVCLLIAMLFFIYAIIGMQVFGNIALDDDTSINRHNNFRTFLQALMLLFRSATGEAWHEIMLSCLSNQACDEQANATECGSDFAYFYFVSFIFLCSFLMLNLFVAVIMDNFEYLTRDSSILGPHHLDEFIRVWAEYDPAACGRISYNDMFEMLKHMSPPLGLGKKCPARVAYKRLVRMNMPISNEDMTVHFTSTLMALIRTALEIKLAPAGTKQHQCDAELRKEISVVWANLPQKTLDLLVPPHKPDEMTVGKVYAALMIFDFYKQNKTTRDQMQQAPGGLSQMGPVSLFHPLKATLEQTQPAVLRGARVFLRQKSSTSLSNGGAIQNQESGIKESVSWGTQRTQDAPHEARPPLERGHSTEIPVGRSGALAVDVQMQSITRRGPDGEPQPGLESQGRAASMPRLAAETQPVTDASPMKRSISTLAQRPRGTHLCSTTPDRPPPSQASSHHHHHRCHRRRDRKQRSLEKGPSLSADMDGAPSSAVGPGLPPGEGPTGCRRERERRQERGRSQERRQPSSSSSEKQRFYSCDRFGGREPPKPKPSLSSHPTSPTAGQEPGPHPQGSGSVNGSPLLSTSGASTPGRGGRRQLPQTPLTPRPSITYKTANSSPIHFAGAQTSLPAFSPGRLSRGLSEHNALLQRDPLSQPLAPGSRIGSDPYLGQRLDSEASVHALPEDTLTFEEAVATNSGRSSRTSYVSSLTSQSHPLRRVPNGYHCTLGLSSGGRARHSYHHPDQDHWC
T1 sequence (P54289 25-956 partner limits assumed): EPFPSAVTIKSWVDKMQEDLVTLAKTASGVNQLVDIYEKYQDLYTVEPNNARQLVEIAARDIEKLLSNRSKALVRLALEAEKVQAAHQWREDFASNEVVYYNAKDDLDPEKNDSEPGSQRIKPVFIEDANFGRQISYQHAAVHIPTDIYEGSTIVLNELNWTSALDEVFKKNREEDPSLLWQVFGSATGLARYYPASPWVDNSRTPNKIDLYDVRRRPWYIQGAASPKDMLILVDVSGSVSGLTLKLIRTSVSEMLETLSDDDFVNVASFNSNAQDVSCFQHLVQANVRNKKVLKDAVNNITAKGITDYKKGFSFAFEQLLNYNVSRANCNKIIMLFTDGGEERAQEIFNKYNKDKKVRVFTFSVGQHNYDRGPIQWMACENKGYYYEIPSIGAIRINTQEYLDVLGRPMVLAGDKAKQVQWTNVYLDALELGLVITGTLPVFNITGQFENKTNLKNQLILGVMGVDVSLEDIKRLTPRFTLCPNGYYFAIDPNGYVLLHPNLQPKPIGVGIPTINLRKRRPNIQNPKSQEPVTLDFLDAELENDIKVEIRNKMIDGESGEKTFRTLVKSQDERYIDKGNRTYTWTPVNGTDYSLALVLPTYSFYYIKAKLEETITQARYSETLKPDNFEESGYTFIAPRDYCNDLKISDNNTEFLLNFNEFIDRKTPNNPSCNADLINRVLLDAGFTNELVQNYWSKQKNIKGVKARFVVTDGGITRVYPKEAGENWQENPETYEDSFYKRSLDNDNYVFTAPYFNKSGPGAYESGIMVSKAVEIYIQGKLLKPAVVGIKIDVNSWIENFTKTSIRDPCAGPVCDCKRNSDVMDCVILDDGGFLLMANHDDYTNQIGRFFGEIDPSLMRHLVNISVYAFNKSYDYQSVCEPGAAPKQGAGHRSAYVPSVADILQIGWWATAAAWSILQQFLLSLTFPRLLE
T1 sequence (P54289 957-1103 partner limits assumed): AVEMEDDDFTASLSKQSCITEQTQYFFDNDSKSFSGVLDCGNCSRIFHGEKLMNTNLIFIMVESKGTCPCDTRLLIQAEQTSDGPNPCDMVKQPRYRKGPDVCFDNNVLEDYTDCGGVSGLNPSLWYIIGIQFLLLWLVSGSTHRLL
T1 sequence (P54284 whole entry partner): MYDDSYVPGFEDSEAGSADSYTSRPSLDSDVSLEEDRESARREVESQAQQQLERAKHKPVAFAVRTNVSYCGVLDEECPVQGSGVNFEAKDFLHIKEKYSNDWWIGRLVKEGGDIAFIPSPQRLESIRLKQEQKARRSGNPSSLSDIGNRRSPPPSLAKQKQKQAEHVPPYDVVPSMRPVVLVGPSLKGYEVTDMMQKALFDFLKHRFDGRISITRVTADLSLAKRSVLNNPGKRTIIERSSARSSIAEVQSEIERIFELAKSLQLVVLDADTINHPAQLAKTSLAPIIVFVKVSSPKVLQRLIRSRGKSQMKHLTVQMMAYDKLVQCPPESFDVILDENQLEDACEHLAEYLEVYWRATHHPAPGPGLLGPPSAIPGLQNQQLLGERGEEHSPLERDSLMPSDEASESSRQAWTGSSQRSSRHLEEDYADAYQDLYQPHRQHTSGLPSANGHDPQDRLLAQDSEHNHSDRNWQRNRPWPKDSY

For orientation: IC50 means the concentration that inhibits the measured activity by half. As for “5-methyl-1-{(3aR,4S,6aS)-2-[6-(trifluoromethyl)pyridin-2-yl]octahydrocyclopenta[c]pyrrol-4-yl}-1H-benzimidazole and 6-methyl-1-{(3aR,4S,6aS)-2-[6-(trifluoromethyl)pyridin-2-yl]octahydrocyclopenta[c]pyrrol-4-yl}-1H-benzimidazole [Example 59]”, the IC50 is 2.8 µM. On to `C=C1CC[C@@H]2CN(Cc3ccccc3)C[C@H]12` [Example 1, (3aS,6aS)-2-benzyl-4-methyleneoctahydrocyclopenta[c]pyrrole], for which the IC50 is above 30 µM. In the case of `C[C@@]1(NC(=O)c2ccccc2)CC[C@@H]2CN(Cc3ccccc3)C[C@@H]21` [Example 2, N-[(3aR,4R,6aS)-2-benzyl-4-methyloctahydrocyclopenta[c]pyrrol-4-yl]benzamide], the IC50 was 11.5 µM. For `C[C@]1(NC(=O)c2ccccc2)CC[C@@H]2CN(Cc3ccccc3)C[C@@H]21` [Example 3, N-[(3aR,4S,6aS)-2-benzyl-4-methyloctahydrocyclopenta[c]pyrrol-4-yl]benzamide], the IC50 was determined as 12 µM.

For `CC(=O)N[C@]1(C)CC[C@@H]2CN(Cc3ccccc3)C[C@@H]21` [Example 4, N-[(3aR,4R,6aS)-2-benzyl-4-methyloctahydrocyclopenta[c]pyrrol-4-yl]acetamide], the IC50 is above 30 µM.

Consider `CC(=O)N[C@@]1(C)CC[C@@H]2CN(Cc3ccccc3)C[C@@H]21` [Example 5, N-[(3aR,4S,6aS)-2-benzyl-4-methyloctahydrocyclopenta[c]pyrrol-4-yl]acetamide], for which the IC50 is above 30 µM. `C[C@@]1(NC(=O)c2cccc(F)c2)CC[C@@H]2CN(Cc3ccccc3)C[C@@H]21` [Example 6, N-[(3aR,4R,6aS)-2-benzyl-4-methyloctahydrocyclopenta[c]pyrrol-4-yl]-3-fluorobenzamide]: the IC50 was 17.7 µM.

Take `C[C@]1(NC(=O)c2cccc(F)c2)CC[C@@H]2CN(Cc3ccccc3)C[C@@H]21` [Example 7, N-[(3aR,4S,6aS)-2-benzyl-4-methyloctahydrocyclopenta[c]pyrrol-4-yl]-3-fluorobenzamide]: the IC50 was found to be 5.16 µM. In the case of `C[C@@]1(NC(=O)c2ccccc2)CC[C@@H]2CNC[C@@H]21` [Example 8, N-[(3aR,4R,6aS)-4-methyloctahydrocyclopenta[c]pyrrol-4-yl]benzamide], the IC50 was 26.3 µM. For `C[C@]1(NC(=O)c2ccccc2)CC[C@@H]2CNC[C@@H]21` [Example 9, N-[(3aR,4S,6aS)-4-methyloctahydrocyclopenta[c]pyrrol-4-yl]benzamide], the IC50 is above 30 µM. Regarding `C[C@@]1(NC(=O)c2ccccc2)CC[C@@H]2CN(c3cccc(C(F)(F)F)n3)C[C@@H]21` [Example 14, N-{(3aR,4R,6aS)-4-methyl-2-[6-(trifluoromethyl)pyridin-2-yl]octahydrocyclopenta[c]pyrrol-4-yl}benzamide], the IC50 turned out to be 2.14 µM. Take `C[C@]1(NC(=O)c2ccccc2)CC[C@@H]2CN(c3cccc(C(F)(F)F)n3)C[C@@H]21` [Example 15, N-{(3aR,4S,6aS)-4-methyl-2-[6-(trifluoromethyl)pyridin-2-yl]octahydrocyclopenta[c]pyrrol-4-yl}benzamide]: the half-inhibitory concentration (IC50) is 2.52 µM. Regarding `CC(=O)N[C@]1(C)CC[C@@H]2CN(c3cccc(C(F)(F)F)n3)C[C@@H]21` [Example 16, N-{(3aR,4R,6aS)-4-methyl-2-[6-(trifluoromethyl)pyridin-2-yl]octahydrocyclopenta[c]pyrrol-4-yl}acetamide], the IC50 was determined as 6.44 µM. With `CC(=O)N[C@@]1(C)CC[C@@H]2CN(c3cccc(C(F)(F)F)n3)C[C@@H]21` [Example 17, N-{(3aR,4S,6aS)-4-methyl-2-[6-(trifluoromethyl)pyridin-2-yl]octahydrocyclopenta[c]pyrrol-4-yl}acetamide] the figure was 3.27 µM; with `C[C@@]1(NC(=O)c2cccc(F)c2)CC[C@@H]2CN(c3cccc(C(F)(F)F)n3)C[C@@H]21` [Example 18, 3-fluoro-N-{(3aR,4R,6aS)-4-methyl-2-[6-(trifluoromethyl)pyridin-2-yl]octahydrocyclopenta[c]pyrrol-4-yl}benzamide], 1.5 µM; with `C[C@]1(NC(=O)c2cccc(F)c2)CC[C@@H]2CN(c3cccc(C(F)(F)F)n3)C[C@@H]21` [Example 19, 3-fluoro-N-{(3aR,4S,6aS)-4-methyl-2-[6-(trifluoromethyl)pyridin-2-yl]octahydrocyclopenta[c]pyrrol-4-yl}benzamide], 1.82 µM. In the case of `C[C@]1(NCc2ccccc2)CC[C@@H]2CN(c3cccc(C(F)(F)F)n3)C[C@@H]21` [Example 20, (3aR,4S,6aS)—N-benzyl-4-methyl-2-[6-(trifluoromethyl)pyridin-2-yl]octahydrocyclopenta[c]pyrrol-4-amine], the IC50 is 0.38 µM. With `C[C@@]1(NCc2ccccc2)CC[C@@H]2CN(c3cccc(C(F)(F)F)n3)C[C@@H]21` [Example 21, (3aR,4R,6aS)—N-benzyl-4-methyl-2-[6-(trifluoromethyl)pyridin-2-yl]octahydrocyclopenta[c]pyrrol-4-amine] the figure was 1.03 µM; with `CCN[C@]1(C)CC[C@@H]2CN(c3cccc(C(F)(F)F)n3)C[C@@H]21` [Example 22, (3aR,4R,6aS)—N-ethyl-4-methyl-2-[6-(trifluoromethyl)pyridin-2-yl]octahydrocyclopenta[c]pyrrol-4-amine], 5.85 µM; with `CCN[C@@]1(C)CC[C@@H]2CN(c3cccc(C(F)(F)F)n3)C[C@@H]21` [Example 23, (3aR,4S,6aS)—N-ethyl-4-methyl-2-[6-(trifluoromethyl)pyridin-2-yl]octahydrocyclopenta[c]pyrrol-4-amine], 1.76 µM.

In the case of `C[C@@]1(NCc2cccc(F)c2)CC[C@@H]2CN(c3cccc(C(F)(F)F)n3)C[C@@H]21` [Example 24, (3aR,4R,6aS)—N-(3-fluorobenzyl)-4-methyl-2-[6-(trifluoromethyl)pyridin-2-yl]octahydrocyclopenta[c]pyrrol-4-amine], the IC50 was determined as 0.33 µM. Consider `C[C@]1(NCc2cccc(F)c2)CC[C@@H]2CN(c3cccc(C(F)(F)F)n3)C[C@@H]21` [Example 25, (3aR,4S,6aS)—N-(3-fluorobenzyl)-4-methyl-2-[6-(trifluoromethyl)pyridin-2-yl]octahydrocyclopenta[c]pyrrol-4-amine], for which the IC50 worked out at 0.18 µM. For `C[C@@]1(N)CC[C@@H]2CN(c3cccc(C(F)(F)F)n3)C[C@@H]21` [Example 26, (3aR,4R,6aS)-4-methyl-2-[6-(trifluoromethyl)pyridin-2-yl]octahydrocyclopenta[c]pyrrol-4-amine], the IC50 came to 3.64 µM. On to `C[C@]1(N)CC[C@@H]2CN(c3cccc(C(F)(F)F)n3)C[C@@H]21` [Example 27, (3aR,4S,6aS)-4-methyl-2-[6-(trifluoromethyl)pyridin-2-yl]octahydrocyclopenta[c]pyrrol-4-amine], for which the IC50 is 1.8 µM. On to `O[C@@H]1CC[C@@H]2CN(c3cccc(C(F)(F)F)n3)C[C@@H]21` [Example 30, (3aR,4R,6aS)-2-[6-(trifluoromethyl)pyridin-2-yl]octahydrocyclopenta[c]pyrrol-4-ol], for which the IC50 was 15.8 µM.

With `O[C@H]1CC[C@@H]2CN(c3cccc(C(F)(F)F)n3)C[C@@H]21` [Example 31, (3aR,4S,6aS)-2-[6-(trifluoromethyl)pyridin-2-yl]octahydrocyclopenta[c]pyrrol-4-ol], the IC50 came out at 9.62 µM.

Source of the values: patent US8796470B2 (AbbVie Inc., priority 2010, dated 2014).
